Publication PMC6375636, “Monotherapy with a low-dose lipopeptide HIV fusion inhibitor maintains long-term viral suppression in rhesus macaques” (PLoS Pathogens, 2019)
Peptide text beside a SMILES is read from it. * marks the point of attachment. Stearoyl = CCCCCCCCCCCCCCCCCC(=O)*

Columns and labels:
[1] = lipopeptide alone, 10 μM in PBS; [θ]222 / -33,000; representative of 2 assays
[2] = biological target: T1, gp41 NHR-derived target mimic peptide N39 (Human immunodeficiency virus type 1 group M subtype B, UniProt P04578); assay: CD spectroscopy of lipopeptides in complex with target mimic peptide N39; type: binding, HIV-1; set-up: [θ]222: unit not given here; conditions: complex with N39, each peptide 10 μM in PBS; representative of 2 assays
T1 construct: the gp41 NHR-derived target mimic peptide N39
Text: Spectra were corrected by subtracting a solvent blank.

[3] = test system: HIV-1NL4-3(D36G) pseudovirus; type: cell-based; conditions: Fig 1; NL4-3(D36G) pseudovirus; mean ± SD of three assays in triplicate; read-out: Anti-HIV activity (IC50, pM) NL4-3 entry
Procedure: The inhibitory activities of inhibitors against HIV-1 pseudoviruses and replication-competent isolates were measured as described previously. Briefly, HIV-1 pseudoviruses were generated via the cotransfection of HEK293T cells with an Env-expressing plasmid and a backbone plasmid that encodes Env-defective, luciferase-expressing HIV-1 genome (pSG3Δenv). Viral stocks of replication-competent HIV-1 isolates were generated by transfecting viral molecular clones into HEK293T cells. […] Inhibitors were prepared in 3-fold dilutions, mixed with 100 TCID50 of a virus, and then incubated for 1 h at room temperature. […] Luciferase activity was measured as described above.

HIV-1JRCSF = type: cell-based; conditions: Fig 1; replication-competent virus; mean ± SD of three assays in triplicate; read-out: Anti-HIV activity (IC50, pM) JRCSF infection
Procedure: The inhibitory activities of inhibitors against HIV-1 pseudoviruses and replication-competent isolates were measured as described previously. Briefly, HIV-1 pseudoviruses were generated via the cotransfection of HEK293T cells with an Env-expressing plasmid and a backbone plasmid that encodes Env-defective, luciferase-expressing HIV-1 genome (pSG3Δenv). Viral stocks of replication-competent HIV-1 isolates were generated by transfecting viral molecular clones into HEK293T cells. Culture supernatants were harvested at 48 h posttransfection, and 50% tissue culture infectious doses (TCID50) in TZM-bl cells were determined. Inhibitors were prepared in 3-fold dilutions, mixed with 100 TCID50 of a virus, and then incubated for 1 h at room temperature. The mixture was added to TZM-bl cells (10^4/well), and the cells were incubated for additional 48 h at 37°C. Luciferase activity was measured as described above.

HIV-1HXB2 Env = biological target: T2, HIV-1HXB2 Env (Human immunodeficiency virus type 1 group M subtype B, UniProt P04578); assay: HIV-1HXB2 Env-mediated cell-cell fusion (HL2/3 effector, TZM-bl target, luciferase reporter); type: cell-based
T2 construct: HL2/3 cells, which stably express high levels of Env, Gag, Tat, Rev, and Nef proteins of the integrated HIV-1 molecular clone HXB2/3gpt; host or cells: HL2/3 cells (effector), cocultured with TZM-bl target cells
Procedure: The inhibitory activities of inhibitors on HIV-1HXB2 Env-mediated cell-cell fusion were determined by a reporter gene assay based on the activation of an HIV LTR-driven luciferase cassette in TZM-bl cells (target) by HIV-1 tat from HL2/3 cells (effector). Briefly, 1 x 10^4/well of TZM-bl cells were plated in 96-well plates and incubated at 37°C overnight. Then, 3 x 10^4/well of HL2/3 cells were cocultured with target cells for 6 h at 37°C in the presence or absence of an inhibitor at graded concentrations. Luciferase activity was measured using luciferase assay reagents and a Luminescence Counter (Promega, Madison, Wisconsin, USA).

T2 sequence (P04578 512-856): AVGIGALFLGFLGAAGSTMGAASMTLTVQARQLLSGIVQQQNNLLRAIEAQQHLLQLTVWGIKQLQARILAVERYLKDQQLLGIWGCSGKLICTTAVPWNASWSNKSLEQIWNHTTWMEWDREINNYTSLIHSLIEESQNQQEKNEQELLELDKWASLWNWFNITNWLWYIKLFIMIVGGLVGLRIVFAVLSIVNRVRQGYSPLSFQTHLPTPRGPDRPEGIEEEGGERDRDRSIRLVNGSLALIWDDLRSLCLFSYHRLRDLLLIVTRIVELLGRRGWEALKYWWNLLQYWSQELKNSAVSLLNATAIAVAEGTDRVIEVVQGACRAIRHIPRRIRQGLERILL
T1 sequence (P04578 528-566): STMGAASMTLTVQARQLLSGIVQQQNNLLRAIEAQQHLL

| Compound | Helix content (%) [1] | Helix content (%) [2] | [θ]222 [2] | IC50 [3] | IC50 (HIV-1JRCSF) | IC50 (HIV-1HXB2 Env) |
| --- | --- | --- | --- | --- | --- | --- |
| CCCCCCCCCCCCCCCCCC(=O)NCCCC[C@H](NC(=O)[C@H](CCC(=O)O)NC(=O)[C@H](CC(C)C)NC(=O)[C@H](CCCCN)NC(=O)[C@H](CCCCN)NC(=O)[C@H](CC(C)C)NC(=O)[C@H](CCC(=O)O)NC(=O)[C@H](CCC(=O)O)NC(=O)[C@H](CCC(=O)O)NC(=O)[C@H](CC(N)=O)NC(=O)[C@H](CCCCN)NC(=O)[C@H](CCCCN)NC(=O)[C@H](CCC(N)=O)NC(=O)[C@H](CCC(N)=O)NC(=O)[C@H](CCC(=O)O)NC(=O)[C@H](CCC(=O)O)NC(=O)[C@H](C)NC(=O)[C@H](CCCCN)NC(=O)[C@H](CCCCN)NC(=O)[C@H](CC(C)C)NC(=O)[C@H](CC(C)C)NC(=O)[C@H](CCC(=O)O)NC(=O)[C@H](CCC(=O)O)NC(=O)[C@@H](NC(=O)[C@H](CCCCN)NC(C)=O)[C@@H](C)CC)C(N)=O [LP-89] (Ac-KIEELLKKAEEQQKKNEEELKKLEK(Stearoyl)-NH2) | 43% | 51% | -16781 | 10.8 ± 3.14 pM | 12.4 ± 1.22 pM | 0.0733 ± 0.021 nM |
| CCCCCCCCCCCCCCCCCC(=O)NCCCC[C@H](NC(=O)[C@H](CCCCN)NC(=O)[C@H](CC(C)C)NC(=O)[C@H](CCC(=O)O)NC(=O)[C@H](CCC(=O)O)NC(=O)[C@H](CCC(=O)O)NC(=O)[C@H](CC(N)=O)NC(=O)[C@H](CCCCN)NC(=O)[C@H](CCCCN)NC(=O)[C@H](CCC(N)=O)NC(=O)[C@H](CCC(N)=O)NC(=O)[C@H](CCC(=O)O)NC(=O)[C@H](CCC(=O)O)NC(=O)[C@H](C)NC(=O)[C@H](CCCCN)NC(=O)[C@H](CCCCN)NC(=O)[C@H](CC(C)C)NC(=O)[C@H](CC(C)C)NC(=O)[C@H](CCC(=O)O)NC(=O)[C@H](CCC(=O)O)NC(=O)[C@@H](NC(=O)[C@H](CCCCN)NC(=O)[C@H](CCC(N)=O)NC(=O)[C@H](CCC(=O)O)NC(=O)[C@H](Cc1c[nH]c2ccccc12)NC(C)=O)[C@@H](C)CC)C(N)=O [LP-91] (Ac-WEQKIEELLKKAEEQQKKNEEELKK(Stearoyl)-NH2) | 42% | 55% | -18156 | 7.33 ± 0.49 pM | 11.1 ± 2.13 pM | 0.0131 ± 0.00125 nM |
| CCCCCCCCCCCCCCCCCC(=O)NCCCC[C@H](NC(=O)[C@H](CCCCN)NC(=O)[C@H](CC(C)C)NC(=O)[C@H](CCC(=O)O)NC(=O)[C@H](CCC(=O)O)NC(=O)[C@H](CCC(=O)O)NC(=O)[C@H](CC(N)=O)NC(=O)[C@H](CCCCN)NC(=O)[C@H](CCCCN)NC(=O)[C@H](CCC(N)=O)NC(=O)[C@H](CCC(N)=O)NC(=O)[C@H](CCC(=O)O)NC(=O)[C@H](CCC(=O)O)NC(=O)[C@H](C)NC(=O)[C@H](CCCCN)NC(=O)[C@H](CCCCN)NC(=O)[C@H](CC(C)C)NC(=O)[C@H](CC(C)C)NC(=O)[C@H](CCC(=O)O)NC(=O)[C@H](CCC(=O)O)NC(=O)[C@@H](NC(C)=O)[C@@H](C)CC)C(N)=O [LP-92] (Ac-IEELLKKAEEQQKKNEEELKK(Stearoyl)-NH2) | 16% | 38% | -12476 | 168 ± 20.6 pM | 229 ± 28.4 pM | 0.189 ± 0.0199 nM |
